# According to the NIST ThermoML archive (doi:10.1016/j.jct.2012.03.005):
# ± gives the expanded uncertainty stated by the source.
# Experiment: activity coefficient (dimensionless); of the first substance listed, at infinite dilution; xn = mol fraction of the nth substance listed
# Details: 308.15 K; 101 kPa; Liquid; Chromatography; x1 = 0
row,Structure (SMILES),activity coefficient
1,CCO [ethanol] + CCn1cc[n+](C)c1.CS(=O)(=O)[O-],0.489 ± 0.037
2,C=CCCCC [hex-1-ene] + CCn1cc[n+](C)c1.CS(=O)(=O)[O-],85.1 ± 5.8
3,CO [methanol] + CCn1cc[n+](C)c1.CS(=O)(=O)[O-],0.223 ± 0.029
4,"Cc1ccccc1C [1,2-dimethylbenzene] + CCn1cc[n+](C)c1.CS(=O)(=O)[O-]",15 ± 1
5,CC(C)=O [acetone] + CCn1cc[n+](C)c1.CS(=O)(=O)[O-],308 ± 21
6,"Cc1cccc(C)c1 [1,3-dimethylbenzene] + CCn1cc[n+](C)c1.CS(=O)(=O)[O-]",19.7 ± 1.3
7,c1ccsc1 [thiophene] + CCn1cc[n+](C)c1.CS(=O)(=O)[O-],1.87 ± 0.13
8,CCC(=O)CC [pentan-3-one] + CCn1cc[n+](C)c1.CS(=O)(=O)[O-],8.08 ± 0.55
9,C=Cc1ccccc1 [styrene] + CCn1cc[n+](C)c1.CS(=O)(=O)[O-],5.68 ± 0.39
10,C=CCCCCCCCC [1-decene] + CCn1cc[n+](C)c1.CS(=O)(=O)[O-],654 ± 45
11,COC(C)(C)C [2-methoxy-2-methylpropane] + CCn1cc[n+](C)c1.CS(=O)(=O)[O-],23.6 ± 1.6
12,C1CCCCCCC1 [cyclooctane] + CCn1cc[n+](C)c1.CS(=O)(=O)[O-],163 ± 11
13,C1CCCCCC1 [cycloheptane] + CCn1cc[n+](C)c1.CS(=O)(=O)[O-],113 ± 8
14,"Cc1ccc(C)cc1 [1,4-dimethylbenzene] + CCn1cc[n+](C)c1.CS(=O)(=O)[O-]",18.6 ± 1.3
15,C#CCCCCCC [1-octyne] + CCn1cc[n+](C)c1.CS(=O)(=O)[O-],26.2 ± 1.8
16,C#CCCCC [1-hexyne] + CCn1cc[n+](C)c1.CS(=O)(=O)[O-],7.87 ± 0.54
17,CCOC(C)(C)C [2-ethoxy-2-methylpropane] + CCn1cc[n+](C)c1.CS(=O)(=O)[O-],66.5 ± 4.6
18,CC#N [acetonitrile] + CCn1cc[n+](C)c1.CS(=O)(=O)[O-],0.799 ± 0.052
19,C=CCCCCCC [oct-1-ene] + CCn1cc[n+](C)c1.CS(=O)(=O)[O-],258 ± 18

row,Structure (SMILES),activity coefficient
1,C=C(C)c1ccccc1 [(1-methylethenyl)benzene] + CCn1cc[n+](C)c1.CS(=O)(=O)[O-],10.7 ± 0.7
2,Cc1ccccc1 [toluene] + CCn1cc[n+](C)c1.CS(=O)(=O)[O-],9.13 ± 0.62
3,CCCCCCCC [octane] + CCn1cc[n+](C)c1.CS(=O)(=O)[O-],597 ± 41
4,c1ccccc1 [benzene] + CCn1cc[n+](C)c1.CS(=O)(=O)[O-],308 ± 21
5,"C1COCCO1 [1,4-dioxane] + CCn1cc[n+](C)c1.CS(=O)(=O)[O-]",2.6 ± 0.18
6,CCCCCCCCC [nonane] + CCn1cc[n+](C)c1.CS(=O)(=O)[O-],911 ± 63
7,CCOCC [diethyl ether] + CCn1cc[n+](C)c1.CS(=O)(=O)[O-],19.2 ± 1.3
8,C1CCCC1 [cyclopentane] + CCn1cc[n+](C)c1.CS(=O)(=O)[O-],46.2 ± 3.2
9,CCCC(C)=O [pentan-2-one] + CCn1cc[n+](C)c1.CS(=O)(=O)[O-],7.83 ± 0.53
10,C#CCCCCC [1-heptyne] + CCn1cc[n+](C)c1.CS(=O)(=O)[O-],14.4 ± 1
11,C=CCCCCC [1-heptene] + CCn1cc[n+](C)c1.CS(=O)(=O)[O-],148 ± 10
12,CCc1ccccc1 [ethylbenzene] + CCn1cc[n+](C)c1.CS(=O)(=O)[O-],18.1 ± 1.2
13,CCCO [propan-1-ol] + CCn1cc[n+](C)c1.CS(=O)(=O)[O-],0.761 ± 0.05
14,CC(C)OC(C)C [diisopropyl ether] + CCn1cc[n+](C)c1.CS(=O)(=O)[O-],79.6 ± 5.5
15,CCCCCCC [heptane] + CCn1cc[n+](C)c1.CS(=O)(=O)[O-],378 ± 26
16,CCC[N+](=O)[O-] [1-nitropropane] + CCn1cc[n+](C)c1.CS(=O)(=O)[O-],2.36 ± 0.16
17,CCCOCCC [dipropyl ether] + CCn1cc[n+](C)c1.CS(=O)(=O)[O-],80.3 ± 5.5
18,CCC(C)(C)OC [2-methoxy-2-methylbutane] + CCn1cc[n+](C)c1.CS(=O)(=O)[O-],40.3 ± 2.8
19,c1ccncc1 [pyridine] + CCn1cc[n+](C)c1.CS(=O)(=O)[O-],1.56 ± 0.1

# Same assay, conditions: 318.15 K; 101 kPa; Liquid; Chromatography; x1 = 0
row,Structure (SMILES),activity coefficient
1,CCO [ethanol] + CCn1cc[n+](C)c1.CS(=O)(=O)[O-],0.483 ± 0.037
2,C=CCCCC [hex-1-ene] + CCn1cc[n+](C)c1.CS(=O)(=O)[O-],77.1 ± 5.3
3,CO [methanol] + CCn1cc[n+](C)c1.CS(=O)(=O)[O-],0.225 ± 0.029
4,"Cc1ccccc1C [1,2-dimethylbenzene] + CCn1cc[n+](C)c1.CS(=O)(=O)[O-]",14.6 ± 1
5,CC(C)=O [acetone] + CCn1cc[n+](C)c1.CS(=O)(=O)[O-],318 ± 22
6,"Cc1cccc(C)c1 [1,3-dimethylbenzene] + CCn1cc[n+](C)c1.CS(=O)(=O)[O-]",19.1 ± 1.3
7,c1ccsc1 [thiophene] + CCn1cc[n+](C)c1.CS(=O)(=O)[O-],1.92 ± 0.13
8,CCC(=O)CC [pentan-3-one] + CCn1cc[n+](C)c1.CS(=O)(=O)[O-],7.96 ± 0.54
9,C=Cc1ccccc1 [styrene] + CCn1cc[n+](C)c1.CS(=O)(=O)[O-],5.71 ± 0.39
10,C=CCCCCCCCC [1-decene] + CCn1cc[n+](C)c1.CS(=O)(=O)[O-],584 ± 40
11,COC(C)(C)C [2-methoxy-2-methylpropane] + CCn1cc[n+](C)c1.CS(=O)(=O)[O-],22.5 ± 1.5
12,C1CCCCCCC1 [cyclooctane] + CCn1cc[n+](C)c1.CS(=O)(=O)[O-],143 ± 10
13,C1CCCCCC1 [cycloheptane] + CCn1cc[n+](C)c1.CS(=O)(=O)[O-],99.8 ± 6.9
14,"Cc1ccc(C)cc1 [1,4-dimethylbenzene] + CCn1cc[n+](C)c1.CS(=O)(=O)[O-]",18.7 ± 1.3
15,C#CCCCCCC [1-octyne] + CCn1cc[n+](C)c1.CS(=O)(=O)[O-],26.2 ± 1.8
16,C#CCCCC [1-hexyne] + CCn1cc[n+](C)c1.CS(=O)(=O)[O-],8.07 ± 0.55
17,CCOC(C)(C)C [2-ethoxy-2-methylpropane] + CCn1cc[n+](C)c1.CS(=O)(=O)[O-],60.8 ± 4.2
18,CC#N [acetonitrile] + CCn1cc[n+](C)c1.CS(=O)(=O)[O-],0.818 ± 0.053
19,C=CCCCCCC [oct-1-ene] + CCn1cc[n+](C)c1.CS(=O)(=O)[O-],228 ± 16

row,Structure (SMILES),activity coefficient
1,C=C(C)c1ccccc1 [(1-methylethenyl)benzene] + CCn1cc[n+](C)c1.CS(=O)(=O)[O-],10.9 ± 0.7
2,Cc1ccccc1 [toluene] + CCn1cc[n+](C)c1.CS(=O)(=O)[O-],9.03 ± 0.62
3,CCCCCCCC [octane] + CCn1cc[n+](C)c1.CS(=O)(=O)[O-],505 ± 35
4,c1ccccc1 [benzene] + CCn1cc[n+](C)c1.CS(=O)(=O)[O-],318 ± 22
5,"C1COCCO1 [1,4-dioxane] + CCn1cc[n+](C)c1.CS(=O)(=O)[O-]",2.63 ± 0.18
6,CCCCCCCCC [nonane] + CCn1cc[n+](C)c1.CS(=O)(=O)[O-],779 ± 54
7,CCOCC [diethyl ether] + CCn1cc[n+](C)c1.CS(=O)(=O)[O-],18.2 ± 1.2
8,C1CCCC1 [cyclopentane] + CCn1cc[n+](C)c1.CS(=O)(=O)[O-],42.2 ± 2.9
9,CCCC(C)=O [pentan-2-one] + CCn1cc[n+](C)c1.CS(=O)(=O)[O-],7.66 ± 0.52
10,C#CCCCCC [1-heptyne] + CCn1cc[n+](C)c1.CS(=O)(=O)[O-],14.6 ± 1
11,C=CCCCCC [1-heptene] + CCn1cc[n+](C)c1.CS(=O)(=O)[O-],134 ± 9
12,CCc1ccccc1 [ethylbenzene] + CCn1cc[n+](C)c1.CS(=O)(=O)[O-],17.5 ± 1.2
13,CCCO [propan-1-ol] + CCn1cc[n+](C)c1.CS(=O)(=O)[O-],0.75 ± 0.05
14,CC(C)OC(C)C [diisopropyl ether] + CCn1cc[n+](C)c1.CS(=O)(=O)[O-],74.3 ± 5.1
15,CCCCCCC [heptane] + CCn1cc[n+](C)c1.CS(=O)(=O)[O-],328 ± 23
16,CCC[N+](=O)[O-] [1-nitropropane] + CCn1cc[n+](C)c1.CS(=O)(=O)[O-],2.37 ± 0.16
17,CCCOCCC [dipropyl ether] + CCn1cc[n+](C)c1.CS(=O)(=O)[O-],72.7 ± 5
18,CCC(C)(C)OC [2-methoxy-2-methylbutane] + CCn1cc[n+](C)c1.CS(=O)(=O)[O-],37.8 ± 2.6
19,c1ccncc1 [pyridine] + CCn1cc[n+](C)c1.CS(=O)(=O)[O-],1.57 ± 0.1

# Same assay, conditions: 328.15 K; 101 kPa; Liquid; Chromatography; x1 = 0
row,Structure (SMILES),activity coefficient
1,CCO [ethanol] + CCn1cc[n+](C)c1.CS(=O)(=O)[O-],0.479 ± 0.037
2,C=CCCCC [hex-1-ene] + CCn1cc[n+](C)c1.CS(=O)(=O)[O-],70.4 ± 4.8
3,CO [methanol] + CCn1cc[n+](C)c1.CS(=O)(=O)[O-],0.228 ± 0.029
4,"Cc1ccccc1C [1,2-dimethylbenzene] + CCn1cc[n+](C)c1.CS(=O)(=O)[O-]",14.3 ± 1
5,CC(C)=O [acetone] + CCn1cc[n+](C)c1.CS(=O)(=O)[O-],328 ± 23
6,"Cc1cccc(C)c1 [1,3-dimethylbenzene] + CCn1cc[n+](C)c1.CS(=O)(=O)[O-]",18.6 ± 1.3
7,c1ccsc1 [thiophene] + CCn1cc[n+](C)c1.CS(=O)(=O)[O-],1.96 ± 0.13
8,CCC(=O)CC [pentan-3-one] + CCn1cc[n+](C)c1.CS(=O)(=O)[O-],7.86 ± 0.54
9,C=Cc1ccccc1 [styrene] + CCn1cc[n+](C)c1.CS(=O)(=O)[O-],5.75 ± 0.39
10,C=CCCCCCCCC [1-decene] + CCn1cc[n+](C)c1.CS(=O)(=O)[O-],528 ± 36
11,COC(C)(C)C [2-methoxy-2-methylpropane] + CCn1cc[n+](C)c1.CS(=O)(=O)[O-],21.7 ± 1.5
12,C1CCCCCCC1 [cyclooctane] + CCn1cc[n+](C)c1.CS(=O)(=O)[O-],128 ± 9
13,C1CCCCCC1 [cycloheptane] + CCn1cc[n+](C)c1.CS(=O)(=O)[O-],90.7 ± 6.2
14,"Cc1ccc(C)cc1 [1,4-dimethylbenzene] + CCn1cc[n+](C)c1.CS(=O)(=O)[O-]",18.7 ± 1.3
15,C#CCCCCCC [1-octyne] + CCn1cc[n+](C)c1.CS(=O)(=O)[O-],25.6 ± 1.8
16,C#CCCCC [1-hexyne] + CCn1cc[n+](C)c1.CS(=O)(=O)[O-],8.06 ± 0.55
17,CCOC(C)(C)C [2-ethoxy-2-methylpropane] + CCn1cc[n+](C)c1.CS(=O)(=O)[O-],57.1 ± 3.9
18,CC#N [acetonitrile] + CCn1cc[n+](C)c1.CS(=O)(=O)[O-],0.841 ± 0.054
19,C=CCCCCCC [oct-1-ene] + CCn1cc[n+](C)c1.CS(=O)(=O)[O-],206 ± 14
20,C=C(C)c1ccccc1 [(1-methylethenyl)benzene] + CCn1cc[n+](C)c1.CS(=O)(=O)[O-],11.1 ± 0.8
21,Cc1ccccc1 [toluene] + CCn1cc[n+](C)c1.CS(=O)(=O)[O-],8.88 ± 0.61
22,CCCCCCCC [octane] + CCn1cc[n+](C)c1.CS(=O)(=O)[O-],453 ± 31
23,c1ccccc1 [benzene] + CCn1cc[n+](C)c1.CS(=O)(=O)[O-],328 ± 23
24,"C1COCCO1 [1,4-dioxane] + CCn1cc[n+](C)c1.CS(=O)(=O)[O-]",2.67 ± 0.18
25,CCCCCCCCC [nonane] + CCn1cc[n+](C)c1.CS(=O)(=O)[O-],690 ± 48
26,CCOCC [diethyl ether] + CCn1cc[n+](C)c1.CS(=O)(=O)[O-],17.5 ± 1.2
27,C1CCCC1 [cyclopentane] + CCn1cc[n+](C)c1.CS(=O)(=O)[O-],39.5 ± 2.7
28,CCCC(C)=O [pentan-2-one] + CCn1cc[n+](C)c1.CS(=O)(=O)[O-],7.52 ± 0.51
